# Results: paper PMC3973950, “Synthesis of 5-arylidine amino-1,3,4-thiadiazol-2-[(N-substituted benzyol)]sulphonamides endowed with potent antioxidants and anticancer activity induces growth inhibition in HEK293, BT474 and NCI-H226 cells” (Medicinal Chemistry Research, 2013)
# Tests used:
# [1] = test system: BT474 (breast cancer cell line); experiment: In vitro cytotoxicity by MTT assay, BT474; format: cell-based; conditions: Homo sapiens, 72 h; for cytotoxicity at 0.005 µM: BT-474, 0.005 μM; for cytotoxicity at 0.005 µM / cytotoxicity at 0.015 µM / cytotoxicity at 0.045 µM / cytotoxicity at 0.13 µM / cytotoxicity at 0.41 µM / cytotoxicity at 1.23 µM / cytotoxicity at 3.7 µM / cytotoxicity at 11.11 µM / cytotoxicity at 33.33 µM / cytotoxicity at 100 µM: read-out: % cytotoxicity (100 − % cell survival) of BT474 cell line; for cytotoxicity at 0.015 µM: BT-474, 0.015 μM; for cytotoxicity at 0.045 µM: BT-474, 0.045 μM; for cytotoxicity at 0.13 µM: BT-474, 0.13 μM; for cytotoxicity at 0.41 µM: BT-474, 0.41 μM; for cytotoxicity at 1.23 µM: BT-474, 1.23 μM; for cytotoxicity at 3.7 µM: BT-474, 3.7 μM; for cytotoxicity at 11.11 µM: BT-474, 11.11 μM; for cytotoxicity at 33.33 µM: BT-474, 33.33 μM; for cytotoxicity at 100 µM: BT-474, 100 μM
# Summary of the method: (§1)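 Monolayers seeded at […] (about 10,000 per well) were treated after 24 h with the synthesized compounds and incubated three days. Viability was taken from MTT reduction, with formazan measured at 490 nm.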
# [2] = Superoxide anion radical scavenging (NBT/NADH/PMS); format: biochemical; conditions: Conc. ± SD; standard catechin; read-out: IC50 inhibitory concentration, Superoxide anion
# Method: Measurement of superoxide anion scavenging activity of the synthesized compound was taken based on the method described by Nishimiki et al. ([1972]) and slightly modified. […] The reaction mixture was incubated at 25 °C for 5 min, and the absorbance at 560 nm was measured against blank samples. Catechin was used as reference compound. All the experiments were performed in triplicate, and the results were averaged. The percentage of inhibition was determined by comparing the results of control and test samples. The IC50 (nM/mL) value are depicted in Table 1.
# [3] = test system: NCI-H226 (lung cancer cell line); experiment: In vitro cytotoxicity by MTT assay, NCI-H226; format: cell-based; conditions: Homo sapiens, 72 h, read-out: % Cytotoxicity (100 − % cell survival) of NCI-H226 cell line; for cytotoxicity at 0.005 µM: NCI-H226, 0.005 μM; for cytotoxicity at 0.045 µM: NCI-H226, 0.045 μM; for cytotoxicity at 0.13 µM: NCI-H226, 0.13 μM; for cytotoxicity at 0.41 µM: NCI-H226, 0.41 μM; for cytotoxicity at 1.23 µM: NCI-H226, 1.23 μM; for cytotoxicity at 3.7 µM: NCI-H226, 3.7 μM; for cytotoxicity at 11.11 µM: NCI-H226, 11.11 μM; for cytotoxicity at 33.33 µM: NCI-H226, 33.33 μM; for cytotoxicity at 100 µM: NCI-H226, 100 μM
# Summary of the method: as §1
# [4] = In vitro cytotoxicity by MTT assay, NCI-H226; format: cell-based; conditions: human, NCI-H226 lung cancer cells, 0.015 μM, read-out: % Cytotoxicity (100 − % cell survival) of NCI-H226 cell line
# Summary of the method: as §1
# [5] = In vitro cytotoxicity by MTT assay, HEK 293; format: cell-based, human; conditions: human, HEK 293 cells, read-out: % cytotoxicity (100 − % cell survival) of HEK 293 cell line
# Summary of the method: as §1
# [6] = Nitric oxide radical scavenging (sodium nitroprusside, Griess reaction); format: biochemical; conditions: Conc. ± SD; standard curcumin; read-out: IC50 inhibitory concentration, Nitric oxide radical
# Method: Nitric oxide generated from sodium nitroprusside in aqueous solution at physiological pH interacts with oxygen to produce nitrite ions, which were measured by the Griess reaction (Marcocci et al., [1994]; Green et al., [1982]). Scavenger of nitric oxide competes with oxygen leading to reduced production of nitric oxide (Mondal et al., [2006]). The reaction mixture (3 mL) containing sodium nitroprusside (10 mM) in phosphate-buffered saline (PBS) and the compounds in different concentrations (10, 20, 30, 40, 50 and 100 μg) were incubated at 25 °C for 150 min. At every 30-min interval, the incubated sample (0.5 mL) was removed and Griess reagent (1 % sulphanilamide, 0.1 % naphthylethylene diamine dihydrochloride in 2 % H3PO4) (0.5 mL) was added. The absorbance of the chromophore formed was measured at 546 nm. All the analyses were performed in triplicate, and the results were averaged. The percentage inhibition of nitric oxide generated was measured by comparing the absorbance values of control and test.
# [7] = test system: HEK 293, M468 and NCI-H226; experiment: In vitro cytotoxicity by MTT assay, summary over all cell lines; format: cell-based; conditions: on all cell lines
# Summary of the method: as §1
Structure (SMILES),cytotoxicity at 0.005 µM [1] [%],cytotoxicity at 0.015 µM [1] [%],cytotoxicity at 0.045 µM [1] [%],cytotoxicity at 0.13 µM [1] [%],cytotoxicity at 0.41 µM [1] [%],cytotoxicity at 1.23 µM [1] [%],cytotoxicity at 3.7 µM [1] [%],cytotoxicity at 11.11 µM [1] [%],cytotoxicity at 33.33 µM [1] [%],cytotoxicity at 100 µM [1] [%],IC50 [2] [µM],cytotoxicity at 0.005 µM [3] [%],cytotoxicity at 0.045 µM [3] [%],cytotoxicity at 0.13 µM [3] [%],cytotoxicity at 0.41 µM [3] [%],cytotoxicity at 1.23 µM [3] [%],cytotoxicity at 3.7 µM [3] [%],cytotoxicity at 11.11 µM [3] [%],cytotoxicity at 33.33 µM [3] [%],cytotoxicity at 100 µM [3] [%],also measured
"COc1ccc(C=Nc2nnc(S(=O)(=O)NC(=O)c3ccccc3)s2)cc1 [Compound 9d, N-({5-[(4-Methoxybenzylidene)amino]-1,3,4-thiadiazol-2-yl}sulfonyl)benzamide]",33.3,33.4,33.5,34,34.2,36.8,36.8,37.4,38,39.4,74.5 ± 8.3,35.6,37.5,38.3,40.6,41.2,43.1,47.8,48.2,53,"cytotoxicity at 72 h, 0.015 µM [4]: 36.3%; melting point: 215 to 217 °C; cytotoxicity at 72 h, 0.005 µM [5]: 30.6%; cytotoxicity at 72 h, 0.015 µM [5]: 32.6%; cytotoxicity at 72 h, 0.045 µM [5]: 33.9%; cytotoxicity at 72 h, 0.13 µM [5]: 34.8%; cytotoxicity at 72 h, 0.41 µM [5]: 34.8%; cytotoxicity at 72 h, 1.23 µM [5]: 35.5%; cytotoxicity at 72 h, 3.7 µM [5]: 35.8%; cytotoxicity at 72 h, 11.11 µM [5]: 36.3%; cytotoxicity at 72 h, 33.33 µM [5]: 38.2%; cytotoxicity at 72 h, 100 µM [5]: 38.9%; IC50 [6]: 53 ± 6.74 µM"
"O=C(NS(=O)(=O)c1nnc(N=Cc2ccccc2)s1)c1ccccc1 [Compound 9a, N-{[5-(Benzylidenamino)-1,3,4-thiadiazol-2-yl]sulphonyl} benzamide]",35.3,35.8,36.4,37,38,39,40.2,40.6,41.5,66,152 ± 14.4,33.3,35.3,36.1,37,37.9,38.1,39.1,41.1,42.4,"cytotoxicity at 72 h, 0.015 µM [4]: 34.8%; melting point: 185 to 187 °C; cytotoxicity at 72 h, 0.005 µM [5]: 37.4%; cytotoxicity at 72 h, 0.015 µM [5]: 38.2%; cytotoxicity at 72 h, 0.045 µM [5]: 39.8%; cytotoxicity at 72 h, 0.13 µM [5]: 40.7%; cytotoxicity at 72 h, 0.41 µM [5]: 42.4%; cytotoxicity at 72 h, 1.23 µM [5]: 43.1%; cytotoxicity at 72 h, 3.7 µM [5]: 44.2%; cytotoxicity at 72 h, 11.11 µM [5]: 45.6%; cytotoxicity at 72 h, 33.33 µM [5]: 46.2%; cytotoxicity at 72 h, 100 µM [5]: 50.6%; IC50 [6]: 104 ± 7.5 µM"
"O=C(NS(=O)(=O)c1nnc(N=Cc2ccc(O)cc2)s1)c1ccccc1 [Compound 9e, N-({5-[(4-Hydroxybenzylidene)amino]-1,3,4-thiadiazol-2-yl}sulfonyl)benzamide]",25.2,26.4,27.3,28.9,29.9,31.9,37.9,41.8,47.5,56.2,136 ± 22.5,39.1,41.9,42.5,43.4,45.8,47.6,48.2,49.3,51.4,"cytotoxicity at 72 h, 0.015 µM [4]: 40.3%; melting point: 178 to 180 °C; cytotoxicity at 72 h, 0.005 µM [5]: 25.3%; cytotoxicity at 72 h, 0.015 µM [5]: 26.7%; cytotoxicity at 72 h, 0.045 µM [5]: 26.6%; cytotoxicity at 72 h, 0.13 µM [5]: 28.3%; cytotoxicity at 72 h, 0.41 µM [5]: 29.8%; cytotoxicity at 72 h, 1.23 µM [5]: 30.3%; cytotoxicity at 72 h, 3.7 µM [5]: 31.4%; cytotoxicity at 72 h, 11.11 µM [5]: 34.2%; cytotoxicity at 72 h, 33.33 µM [5]: 37.6%; cytotoxicity at 72 h, 100 µM [5]: 39.6%; IC50 [6]: 155 ± 17.6 µM"
"COc1ccccc1C=Nc1nnc(S(=O)(=O)NC(=O)c2ccccc2)s1 [Compound 9c, N-({5-[(2-Methoxybenzylidene)amino]-1,3,4-thiadiazol-2-yl}sulfonyl)benzamide]",38.1,41.5,42.6,44.4,47,50.4,53.6,54.8,58.8,67.1,128 ± 21.7,31.5,34.1,35.1,35.9,36.1,37.7,38.2,40.3,43.5,"CC50 ([1]; BT-474, BT474, concentration at which 50 % of the cells are dead, read-out: CTC50 (cytotoxicity concentration)): 0.794 µM; cytotoxic activity compared with all synthesized compounds [7]: more potent; cytotoxicity at 72 h, 0.015 µM [4]: 33.2%; cytotoxicity at 72 h, 0.005 µM [5]: 36.8%; cytotoxicity at 72 h, 0.015 µM [5]: 38.2%; cytotoxicity at 72 h, 0.045 µM [5]: 40.3%; cytotoxicity at 72 h, 0.13 µM [5]: 42.1%; cytotoxicity at 72 h, 0.41 µM [5]: 42.9%; cytotoxicity at 72 h, 1.23 µM [5]: 43.1%; cytotoxicity at 72 h, 3.7 µM [5]: 44.3%; cytotoxicity at 72 h, 11.11 µM [5]: 45.9%; cytotoxicity at 72 h, 33.33 µM [5]: 47.4%; cytotoxicity at 72 h, 100 µM [5]: 52.3%; IC50 [6]: 81.9 ± 10.4 µM"
